Measurements from patent US20090275656A1, “Medicinal Compositions of Salts, Chelates and/or Free Acids of Alpha Hydroxyl Organic Acids and Related Processes and Methods” (priority 2005, published 2009).
“Also recorded” adds a separate entry of the source. Read-outs that look alike come from different tables or passages of the source.

Tests used:
NF-kB = NF-kB inhibition in Jurkat T cells; type: cell-based, human; conditions: FIG. 4
Method: FIG. 4 illustrates the evaluation of NF-kB in Jurkat T cells as previously described in detail after treatment with quinic acid (H+), quinic aid ammonium chelate neutralized to pH=7.5 or the equivalent amount of […] (NH4Cl).
Independent inhibition of NF-kB by either QA or NH4+ ions. Human Jurkat T cells were incubated together with either QA, QA-NH4+ or NH4Cl, and the degree of inhibition of NF-kB evaluated as described elsewhere. See, FIG. 4. Parra E, et al., 1997. Mol Cell Biol 17:1324-23; Akesson, C., et al., Int. Immunopharmacol., 5(1):219 (2005).

[1] = test system: C57BL/6 mouse spleen cells; experiment: Growth arrest of spleen cells cultured with mitogen Con A (thymidine incorporation); type: cell-based; conditions: 48 hours
Method: Growth of spleen cells was evaluated in response to the mitogen Con A (2.5 μg/ml) after 48 hours by radioactive thymidine incorporation. Comparison is made at doses in mg/ml for inhibiting 25%, 50% and 90% of the growth of spleen cells; i.e. IC dose values.
Growth of spleen cells was evaluated in response to the mitogen Con A (2.5 μg/ml) after 48 hours by radioactive thymidine incorporation. Comparison is made at concentrations in mg/ml for inhibiting 25%, 50% and 90% of the growth of spleen cells; IC values.
Comparison is made at doses in mg/ml for inhibiting 25%, 50% and 90% of the growth of spleen cells; IC values.
For the study of Citrimix as the calcium/potassium alpha hydroxy citric acid chelate compared to the ammonia chelate of hydroxy citric acid (Nu-Citrimix), inhibition growth of primary spleen cells after in vitro exposure in microtiter cell culture for 48 hours in the presence of mitogen (Con A, 2 ug/ml), was the bioassay procedure used (Akesson C., Lindgren H., Pero R. W., Leanderson T., Ivars F., “An extract of Uncaria Tomentosa inhibiting cell division and NF-kB activity without inducing cell death,” International Immunopharm 3:1889-1900, 2003).

[2] = test system: human HL-60 leukemic cells; experiment: In vitro growth inhibition of cultured HL-60 cells by quinic acid salts/chelates (MTT); type: cell-based; conditions: 72 hr, concentrations up to 3000 μg/ml
Excerpt: FIG. 1 illustrates in vitro growth inhibition expressed as IC50 values (i.e. the dose that inhibits 50% of growth) induced by various quinic acid salts, chelates or salts/chelates (molecular structure at saturation undetermined) in cultured HL-60 cells. QA-H+=free quinic acid (H+), QA-NH4.+=quinic acid ammonium chelate, QA-Na+=quinic acid sodium salt, QA-K+=quinic acid potaasium chelate, QA-Zn++=quinic acid zinc salt/chelate, QA-Li+=quinic acid lithium salt/chelate, Ca++=quinic acid calcium chelate, quinic acid histidine salt/chaelate=QA-histidine, quinic acid lysine salt/chelate=QA-lysine, and C-Med-100=non pH adjusted water extract.
For the study involving quinic acid salts and chelates (FIG. 1) quinic acid was purchased from Sigma (>99%). QA salts/chelates were synthesized by neutralization to pH=7.5 with the appropriate base, i.e., NH4OH, NaOH, Ca(OH)2, Zn(OH)2, LiOH, KOH, lysine or histidine. Serial dilutions of test compounds were added to human HL-60 leukemic cells (0.05×10^6 cells/ml) in 96-well, flat bottomed microtiter plates to give final concentrations in the cultures up to 3000 μg/ml. The plates were incubated for 72 hr at 37 C, pulsed with 20 μl MTT (5 mg/ml) for 3 hr, and the color estimated spectrophotometrically at 540 nm as described previously. (Schweitzer, C M et al. Spectrophotometric determination of clonogenic capacity of leukemic cells in semisolid microtiter culture systems. Experimental Hematology 21: 573-578, 1993). IC50 values were calculated and compared based on the live/dead ratio of cells.

[3] = lower animals, oral, highest dose tested 300-600 mg/kg; Adamson et al 1970; cited from earlier work
[4] = rat, oral; Sheng et al 2005; cited from earlier work
DNA repair = DNA repair enhancement in vivo
Excerpt: The discovery began in trying to explain the biological activity of a hot water extract of Cat's Claw bark, Uncaria tomentosa, called C-Med-100. […] After this initial biological characterization, the applicant has set forth to identify the natural product behind DNA repair enhancement as a potential anti-aging therapy. A series of chemical studies have led scientists to first identify carboxy alkyl esters (CAEs) as the bioactives and then it was followed by quinic acid esters (QAEs) being identified as the only bioactive CAEs in cat's claw water extracts. […] bioactive both in vitro and in vivo. […] However, quinic acid is present in water extracts of Cat's Claw as […] in effect in a pro-metabolite form since the QAEs would be hydrolyzed to quinic acid in the gastrointestinal tract.

[5] = 2700 μg/ml; Jacobsen et al 1978; cited from earlier work
mouse spleen WBC = experiment: Mouse spleen WBC after quinic acid oral administration; type: in vivo; conditions: oral (gavage or drinking water), increased from 6.2
Excerpt: (§1) Rat white blood cells (WBC) or mouse spleen WBC were increased in vivo after quinic acid oral administration either by gavage or in drinking water from 7.2 to >8.2×10^6 cells/ml or 6.2 to 8.3×10^9 cells/ml, respectively. […] If extrapolated into a lifespan which is logically reasonable, then living to an average age of 90 years would be increased to 112 years by ingesting optimal amounts of quinic acid during one's lifetime.

[6] = mouse, drink water; Akesson et al 2005; cited from earlier work
[7] = human, oral, highest dose tested 90 mg/kg; Beer et al 1951, Adamson et al 1970; cited from earlier work
[8] = test system: Rat white blood cells (WBC); experiment: DNA damage recovery in the rat after DXR treatment, white blood cell count; type: in vivo; conditions: for Prevention of cell death after exposure to DNA damaging agent DXR: DXR treatment, WBC after 15 days
Excerpt: White blood cell (WBC) growth after 15 days estimated as 10^12WBC/liter blood. DXR=doxorubicin DNA damaging agent.
as §1

[9] = Safety, toxicity and efficacy (Table 2), human; type: in vivo; conditions: oral, highest dose tested 70 mg/kg, University of Lund human volunteer n = 2
Excerpt: Quinmax™ is substantially pure quinic acid neutralized with aqueous ammonia to pH=7.5. As a result, in water ammonium ions are also generated which in themselves have potent biological functions. Ammonium ions, for example, stimulate protein synthesis in the GI tract, neutralize lysosomal vesicles thus preventing oxidative stress DNA damage, and inhibit NF-kB mediated inflammatory responses. These are examples of additional biological properties of Quinmax™, which is devoid of any added-on toxicity. […] Jacobsen, L B, Richardson, C L, Floss, H G. 1978. Shikimic acid and quinic acid are not mutagenic in the Ames assay. Lloydia 41(5): 450-452. Here the most important consideration is to compare the highest doses of quinic acid exposure to those shown to have efficacy in various animal models. It is quite apparent that quinic acid doses that far exceed the known efficacious doses of quinic acid have been used in the various animal model systems.
Here the most important consideration is to compare the highest doses of quinic acid exposure to those shown to have efficacy in various animal models. It is quite apparent that quinic acid doses that far exceed the known efficacious doses of quinic acid have been used in the various animal model systems. […] Moreover, Quinmax™ is quinic acid neutralized with aqueous ammonia to pH=7.5. […]

[10] = human, in vivo, po
Method: Additional oral administration of high dose QA was carried out after ingestion of 6 gm Quinmax™ in human volunteers at the University of Lund. The purpose of this study was to determine if significant metabolism of QA to hippuric acid occurred when QA was administered in the ammonia chelated form as Quinmax™, a 1:1.6 molar ratio of QA to ammonia ions.
A apparently healthy volunteer drank 6 gm Quinmax™ dissolved in 300 ml water over a 15 min period, and then about 40 ml of peripheral blood (4-red topped vacutainers) were allowed to clot at room temperature to prepare serum samples by centrifugation. The serum sampling points were 0.7 hr, 1.7 hr, 2.7 hr, 3.7 hr, 10.5 hr 12.5 hr, 22 hr, 28 hr and 44 hr. 30 ml serum samples were precipitated with 50% ethanol, taken to dryness under a stream of air, and redissolved in 1 ml of methanol for simultaneous HPLC analysis of quinic acid and hippuric acid.
First to determine when peak serum concentrations of QA occurred and how long they would remain detectable.

SMILES | NF-kB inhibition (comparison in words) (NF-kB) | IC25 growth of spleen cells (comparison in words) [1] | IC50 growth of spleen cells (comparison in words) [1] | IC90 growth of spleen cells (comparison in words) [1] | Efficacy (efficacious dose) [4] | DNA repair enhancing activity (comparison in words) (DNA repair) | Prevention of cell death after exposure to DNA damaging agent DXR ([8]; rat) | further results
Cl.N [NH4Cl, reference compound] | as effective as the quinic acid NH4+ chelate | comparable to the quinic acid ammonium chelate | comparable to the quinic acid ammonium chelate | comparable to the quinic acid ammonium chelate | – | – | – | –
O=C([O-])C1(O)CC(O)C(O)C(O)C1.O=C([O-])C1(O)CC(O)C(O)C(O)C1.[Ca+2] (stereo not drawn) [QA-Ca++, quinic acid calcium chelate] | – | – | – | – | – | – | – | IC50 growth inhibition of HL-60 cells (comparison in words) ([2]; FIG. 1): more effective than known salts such as QA-Na+
O=C(O)[C@]1(O)C[C@@H](O)[C@@H](O)[C@H](O)C1 [Quinic acid] | – | – | – | – | ≦200 mg/kg | as much DNA repair enhancing activity in vivo as did the QAEs | prevent cell death | Toxicity [3]: None; Toxicity evaluated by mutagenicity in the Ames Assay [5]: did not demonstrate any toxicity; Mouse spleen WBC after oral administration (mouse spleen WBC): 8.3 ×10^9 cells/ml; Efficacy (efficacious dose) [6]: 250 mg/kg; Toxicity [7]: None; Increase in the protection of the DNA from becoming damaged and killing the cells ([8]; calculated from rat WBC and mouse spleen WBC increases): 13-25%; Rat white blood cells (WBC) after oral administration ([8]; rat, oral (gavage or drinking water), increased from 7.2): > 8.2 ×10^6 cells/ml
N.O=C(O)[C@]1(O)C[C@@H](O)[C@@H](O)[C@H](O)C1 [Quinmax™, quinic acid ammonium chelate] | enhanced NF-kB inhibition over quinic acid (H+) | dramatically lowering the IC25, IC50 and IC90 values compared to quinic acid (H+) | dramatically lowering the IC25, IC50 and IC90 values compared to quinic acid (H+) | dramatically lowering the IC25, IC50 and IC90 values compared to quinic acid (H+) | ≦200 mg/kg | as efficacious as Cat's Claw water extracts such as C-Med-100 | prevent cell death | Toxicity [9]: None; Time during which hippuric acid could be measured in serum [10]: 3.7 to 12.5 h; Time of peak serum concentrations of QA [10]: around 10.5 hr; IC50 growth inhibition of HL-60 cells (comparison in words) ([2]; FIG. 1, listed as QA-NH4+): more effective than known salts such as QA-Na+; IC50 growth inhibition of HL-60 cells (comparison in words) ([2]; FIG. 1, listed as QA-NH4+ chelate): much more biologically effective than any other salt or chelate; also recorded: as efficacious as the cat's claw water extract (C-Med-100)
